How the values were obtained:
Assay in all cases: relative viability (nuclei count vs DMSO), 5 days (fraction); higher = more cells survive
[1] = compound: CCN1C(=O)C2=CC(=C(N=C2N(C1=O)C3CC3)N)C(=O)N
Procedure, shortened: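 Viability here means nuclei in treated wells divided by nuclei in vehicle wells, reported as the median across plates. Only plates with control CV below 25% and at least one doubling passed. Lung cancer cell lines in 1536-well plates were exposed to five √10-spaced library-drug doses for 5 days and counted from 4× Hoechst images in MetaXpress.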

[2] = compound: CCN1C(=O)C2=CC(=C(N=C2N(C1=O)C3CC3)N)C(=O)N + O=C(c1cc(Cc2n[nH]c(=O)c3ccccc23)ccc1F)N1CCN(C(=O)C2CC2)CC1 [Olaparib] (partner 8 µM)
Procedure, shortened: (§1)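 Dosing by pin tool came one day after lung cancer cell lines were seeded in 1536-well plates, using either one drug or a fixed anchor-drug dose plus five library-drug doses (not always all listed) in √10 steps. After 5 days, nuclei were counted on 4× images. Relative viability is treated-well nuclei count divided by vehicle-well nuclei count, and values are medians of duplicate plates.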

[3] = compound: CCN1C(=O)C2=CC(=C(N=C2N(C1=O)C3CC3)N)C(=O)N + CS(=O)(=O)N1CCN(Cc2cc3nc(-c4cccc5[nH]ncc45)nc(N4CCOCC4)c3s2)CC1 [Pictilisib] (partner 1 µM)
Procedure, shortened: as §1

[4] = compound: CCN1C(=O)C2=CC(=C(N=C2N(C1=O)C3CC3)N)C(=O)N + COc1cc2c(Oc3ccc(NC(=O)C4(C(=O)Nc5ccc(F)cc5)CC4)cc3F)ccnc2cc1OCCCN1CCOCC1 [Foretinib] (partner 0.25 µM)
Procedure, shortened: as §1

[5] = compound: CCN1C(=O)C2=CC(=C(N=C2N(C1=O)C3CC3)N)C(=O)N + CC1(C)CCC(c2ccc(Cl)cc2)=C(CN2CCN(c3ccc(C(=O)NS(=O)(=O)c4ccc(N[C@H](CCN5CCOCC5)CSc5ccccc5)c(S(=O)(=O)C(F)(F)F)c4)cc3)CC2)C1 [Navitoclax] (partner 0.5 µM)
Procedure, shortened: as §1

[6] = compound: CCN1C(=O)C2=CC(=C(N=C2N(C1=O)C3CC3)N)C(=O)N + CS(=O)(=O)CCNCc1ccc(-c2ccc3ncnc(Nc4ccc(OCc5cccc(F)c5)c(Cl)c4)c3c2)o1 [Lapatinib] (partner 2 µM)
Procedure, shortened: as §1

[7] = compound: CCN1C(=O)C2=CC(=C(N=C2N(C1=O)C3CC3)N)C(=O)N + Cc1nc(NC(=O)N2CCC[C@H]2C(N)=O)sc1-c1ccnc(C(C)(C)C(F)(F)F)c1 [Alpelisib] (partner 2 µM)
Procedure, shortened: as §1

[8] = compound: CCN1C(=O)C2=CC(=C(N=C2N(C1=O)C3CC3)N)C(=O)N + C[C@]1(O)C[C@@H](c2nc(-c3ccc4ccc(-c5ccccc5)nc4c3)c3c(N)nccn32)C1 [Linsitinib] (partner 1 µM)
Procedure, shortened: as §1

[9] = compound: CCN1C(=O)C2=CC(=C(N=C2N(C1=O)C3CC3)N)C(=O)N + CC(C)C[C@H](NC(=O)[C@H](Cc1ccccc1)NC(=O)c1cnccn1)B(O)O [Bortezomib] (partner 0.002 µM)
Procedure, shortened: as §1

[10] = compound: CCN1C(=O)C2=CC(=C(N=C2N(C1=O)C3CC3)N)C(=O)N + C[C@@H](Oc1cc(-c2cnn(C3CCNCC3)c2)cnc1N)c1c(Cl)ccc(F)c1Cl [Crizotinib] (partner 1 µM)
Procedure, shortened: as §1

[11] = compound: CCN1C(=O)C2=CC(=C(N=C2N(C1=O)C3CC3)N)C(=O)N + N=C(N)NC(=N)NCCc1ccccc1 [Phenformin] (partner 250 µM)
Procedure, shortened: as §1

[12] = compound: CCN1C(=O)C2=CC(=C(N=C2N(C1=O)C3CC3)N)C(=O)N + Cc1cc(Nc2cc(N3CCN(C)CC3)nc(Sc3ccc(NC(=O)C4CC4)cc3)n2)n[nH]1 [Tozasertib] (partner 0.1 µM)
Procedure, shortened: as §1

[13] = compound: CCN1C(=O)C2=CC(=C(N=C2N(C1=O)C3CC3)N)C(=O)N + CCNC(=O)c1noc(-c2cc(C(C)C)c(O)cc2O)c1-c1ccc(CN2CCOCC2)cc1 [Luminespib] (partner 0.01 µM)
Procedure, shortened: as §1

[14] = compound: CCN1C(=O)C2=CC(=C(N=C2N(C1=O)C3CC3)N)C(=O)N + COc1cccc2cc(-c3nc([C@H]4CC[C@H](C(=O)O)CC4)n4ncnc(N)c34)[nH]c12 [OSI-027] (partner 0.5 µM)
Procedure, shortened: as §1

[15] = compound: CCN1C(=O)C2=CC(=C(N=C2N(C1=O)C3CC3)N)C(=O)N + Cc1nc(Nc2ncc(C(=O)Nc3c(C)cccc3Cl)s2)cc(N2CCN(CCO)CC2)n1 [Dasatinib] (partner 0.075 µM)
Procedure, shortened: as §1

[16] = compound: CCN1C(=O)C2=CC(=C(N=C2N(C1=O)C3CC3)N)C(=O)N + Nc1nc2[nH]cc(CCc3ccc(C(=O)N[C@@H](CCC(=O)O)C(=O)O)cc3)c2c(=O)[nH]1 [Pemetrexed] (partner 0.2 µM)
Procedure, shortened: as §1

[17] = compound: CCN1C(=O)C2=CC(=C(N=C2N(C1=O)C3CC3)N)C(=O)N + CC(=O)c1c(C)c2cnc(Nc3ccc(N4CCNCC4)cn3)nc2n(C2CCCC2)c1=O [Palbociclib] (partner 0.5 µM)
Procedure, shortened: as §1

[18] = compound: CCN1C(=O)C2=CC(=C(N=C2N(C1=O)C3CC3)N)C(=O)N + CC(=O)Nc1cccc(-n2c(=O)n(C3CC3)c(=O)c3c(Nc4ccc(I)cc4F)n(C)c(=O)c(C)c32)c1 [Trametinib] (partner 0.02 µM)
Procedure, shortened: as §1

[19] = compound: CCN1C(=O)C2=CC(=C(N=C2N(C1=O)C3CC3)N)C(=O)N + Nc1ncn([C@H]2C[C@H](O)[C@@H](CO)O2)c(=O)n1 [Decitabine] (partner 2 µM)
Procedure, shortened: as §1

[20] = compound: CCN1C(=O)C2=CC(=C(N=C2N(C1=O)C3CC3)N)C(=O)N + NC(=O)Nc1cc(-c2cccc(F)c2)sc1C(=O)N[C@H]1CCCNC1 [AZD7762] (partner 0.2 µM)
Procedure, shortened: as §1

[21] = compound: CCN1C(=O)C2=CC(=C(N=C2N(C1=O)C3CC3)N)C(=O)N + O=C(CCCCCCC(=O)Nc1ccccc1)NO [Vorinostat] (partner 1 µM)
Procedure, shortened: as §1

What does the source list for NCI-H1299?
relative viability ([1]; 0.253 µM): 1.02; relative viability ([1]; 0.8 µM): 1.02; relative viability ([1]; 2.53 µM): 0.986; relative viability ([1]; 8 µM): 0.976; relative viability ([2]; first compound 0.253 µM): 0.922; relative viability ([2]; first compound 0.8 µM): 0.956; relative viability ([2]; first compound 2.53 µM): 0.918; relative viability ([2]; first compound 8 µM): 0.942; relative viability ([3]; first compound 0.253 µM): 0.879; relative viability ([3]; first compound 0.8 µM): 0.81; relative viability ([3]; first compound 2.53 µM): 0.701; relative viability ([3]; first compound 8 µM): 0.962; relative viability ([4]; first compound 0.253 µM): 1.16; relative viability ([4]; first compound 0.8 µM): 1.1; relative viability ([4]; first compound 2.53 µM): 1.08; relative viability ([4]; first compound 8 µM): 1.05; relative viability ([5]; first compound 0.253 µM): 1.07; relative viability ([5]; first compound 0.8 µM): 1.06; relative viability ([5]; first compound 2.53 µM): 1.04; relative viability ([5]; first compound 8 µM): 1.01; relative viability ([6]; first compound 0.253 µM): 1.06; relative viability ([6]; first compound 0.8 µM): 0.978; relative viability ([6]; first compound 2.53 µM): 0.933; relative viability ([6]; first compound 8 µM): 0.947; relative viability ([7]; first compound 0.253 µM): 1.01; relative viability ([7]; first compound 0.8 µM): 1.15; relative viability ([7]; first compound 2.53 µM): 1.05; relative viability ([7]; first compound 8 µM): 1.08; relative viability ([8]; first compound 0.253 µM): 0.991; relative viability ([8]; first compound 0.8 µM): 0.98; relative viability ([8]; first compound 2.53 µM): 0.93; relative viability ([8]; first compound 8 µM): 0.982; relative viability ([9]; first compound 0.253 µM): 1.01; relative viability ([9]; first compound 0.8 µM): 1.01; relative viability ([9]; first compound 2.53 µM): 1; relative viability ([9]; first compound 8 µM): 0.999; relative viability ([10]; first compound 0.253 µM): 1; relative viability ([10]; first compound 0.8 µM): 0.914; relative viability ([10]; first compound 2.53 µM): 0.924; relative viability ([10]; first compound 8 µM): 0.966

With NCI-H1623 as the cell line, how does the relative viability ([1]; 0.253 µM) read?
The relative viability was 0.922.

What about the relative viability ([1]; 0.8 µM) of the same cell line?
The relative viability was 0.992.

What about the relative viability ([1]; 2.53 µM) of the same cell line?
The relative viability was 1.02.

What about the relative viability ([1]; 8 µM) of the same cell line?
Its relative viability is 1.13.

What about the relative viability ([11]; first compound 0.253 µM) of the same cell line?
The relative viability was 0.514.

And the relative viability ([11]; first compound 0.8 µM)?
The relative viability was 0.59.

What about the relative viability ([11]; first compound 2.53 µM) of the same cell line?
The relative viability was 0.63.

What about the relative viability ([11]; first compound 8 µM) of the same cell line?
The relative viability was 0.567.

And the relative viability ([4]; first compound 0.253 µM)?
Its relative viability is 0.856.

And the relative viability ([4]; first compound 0.8 µM)?
Its relative viability is 0.862.

And the relative viability ([4]; first compound 2.53 µM)?
The relative viability was 0.94.

What about the relative viability ([4]; first compound 8 µM) of the same cell line?
The relative viability was 0.939.

What about the relative viability ([12]; first compound 0.253 µM) of the same cell line?
Its relative viability is 0.405.

What about the relative viability ([12]; first compound 0.8 µM) of the same cell line?
Its relative viability is 0.442.

And the relative viability ([12]; first compound 2.53 µM)?
Its relative viability is 0.438.

What about the relative viability ([12]; first compound 8 µM) of the same cell line?
The relative viability was 0.48.

And the relative viability ([13]; first compound 0.253 µM)?
The relative viability was 0.454.

What about the relative viability ([13]; first compound 0.8 µM) of the same cell line?
Its relative viability is 0.452.

What about the relative viability ([13]; first compound 2.53 µM) of the same cell line?
Its relative viability is 0.546.

And the relative viability ([13]; first compound 8 µM)?
The relative viability was 0.473.

What about the relative viability ([14]; first compound 0.253 µM) of the same cell line?
Its relative viability is 0.439.

And the relative viability ([14]; first compound 0.8 µM)?
Its relative viability is 0.428.

And the relative viability ([14]; first compound 2.53 µM)?
The relative viability was 0.455.

What about the relative viability ([14]; first compound 8 µM) of the same cell line?
The relative viability was 0.446.

What about the relative viability ([15]; first compound 0.253 µM) of the same cell line?
Its relative viability is 0.518.

And the relative viability ([15]; first compound 0.8 µM)?
Its relative viability is 0.589.

What about the relative viability ([15]; first compound 2.53 µM) of the same cell line?
The relative viability was 0.627.

And the relative viability ([15]; first compound 8 µM)?
Its relative viability is 0.595.

What does the source list for NCI-H1648?
relative viability ([1]; 0.253 µM): 0.835; relative viability ([1]; 0.8 µM): 0.932; relative viability ([1]; 2.53 µM): 0.89; relative viability ([1]; 8 µM): 0.851; relative viability ([2]; first compound 0.253 µM): 0.914; relative viability ([2]; first compound 2.53 µM): 1.07; relative viability ([2]; first compound 8 µM): 0.883; relative viability ([16]; first compound 0.253 µM): 0.735; relative viability ([16]; first compound 2.53 µM): 0.64; relative viability ([16]; first compound 8 µM): 0.585; relative viability ([12]; first compound 0.253 µM): 0.416; relative viability ([12]; first compound 0.8 µM): 0.526; relative viability ([12]; first compound 2.53 µM): 0.423; relative viability ([12]; first compound 8 µM): 0.53; relative viability ([17]; first compound 0.253 µM): 0.301; relative viability ([17]; first compound 2.53 µM): 0.243; relative viability ([17]; first compound 8 µM): 0.273; relative viability ([18]; first compound 0.253 µM): 0.45; relative viability ([18]; first compound 2.53 µM): 0.245; relative viability ([18]; first compound 8 µM): 0.386; relative viability ([19]; first compound 0.253 µM): 0.394; relative viability ([19]; first compound 2.53 µM): 0.429; relative viability ([19]; first compound 8 µM): 0.445; relative viability ([14]; first compound 0.253 µM): 0.265; relative viability ([14]; first compound 0.8 µM): 0.271; relative viability ([14]; first compound 2.53 µM): 0.259; relative viability ([14]; first compound 8 µM): 0.278; relative viability ([20]; first compound 0.253 µM): 0.706; relative viability ([20]; first compound 2.53 µM): 0.646; relative viability ([20]; first compound 8 µM): 0.568; relative viability ([21]; first compound 0.253 µM): 0.488; relative viability ([21]; first compound 2.53 µM): 0.219; relative viability ([21]; first compound 8 µM): 0.9

— the supplement of paper PMC10307832
